Tests used:
[1] = target: T1, casein kinase 2 alpha (CK2α) (Homo sapiens, UniProt P68400); assay: CK2α kinase assay using peptide phosphoacceptor (substrate phosphorylation, SPA); assay type: biochemical; conditions: purified CK2α (co-expressed with CK2β), 0.001 mM peptide, 0.001 mM ATP, 3 hours room temperature; read-out: pIC50 values (converted)
T1 construct: made in house; host or cells: baculovirus-based vectors in Sf21 insect cells
Experimental: Compounds of the present invention were also tested for casein kinase 2 alpha (CK2α) inhibitory activity in substrate phosphorylation assays. This assay examines the ability of small molecule organic compounds to inhibit the serine phosphorylation of a peptide substrate.
Kinase Assays Using Peptide Phosphoacceptor
The biotinylated peptide (Biotin—GGRRRDDDS*DDD-OH), was purchased from Biosource International, Inc. (Camarillo, Calif.), and its purity was determined by HPLC. Phosphorylation of serine (S*) occurs under assay conditions described. The calculated molecular mass of the peptide was 1713 dalton. Solid sample was dissolved at 10 mM in DMSO, aliquoted, and stored at −20° C. until use.
Recombinant expression of casein kinase 2 alpha (CK2α), using baculovirus-based vectors in Sf21 insect cells and purified by P11 phosphocellulose (Whatman) chromatography of the clarified cell lysate, produced constitutively active enzyme. CK2α was co-expressed with CK2β. Samples were stored at −20° C. in the presence of 50% glycerol until use.
Kinase Assay of Purified CK2α:
Assays were performed in 384 well plates (Costar, Catalog No. 3705). Compounds first were delivered to the plate in one microliter DMSO, followed by reaction mix (in 40 ul volume), which contained in final concentrations 25 mM Hepes buffer, pH 7.4; […]; 150 mM NaCl; 1 mM β-mercapto ethanol; 0.0025% Tween-20; 0.001 mM ATP, 0.1 μCi of [γ-33P]ATP; purified CK2α (6 ng/assay), and 0.001 mM peptide. […]
The data for dose responses were plotted as % Inhibition, calculated with the data reduction formula 100*(1−[(U1−C2)/(C1−C2)]), versus concentration of compound, where U is the unknown value, C1 is the average control value obtained for DMSO, and C2 is the average control value obtained for 0.05M EDTA Data were fitted to the curve described by: y=((Vmax*x)/(K+x)) where Vmax is the upper asymptote and K is the IC50. The results for each compound were recorded as pIC50 calculated as follows: pIC50=−Log 10(K) in Table 2.

hYAK3 = target: T2, hYAK3 (Homo sapiens, UniProt O43781); assay: YAK3 scintillation proximity assay using Ser164 of myelin basic protein as the phosphoacceptor; assay type: biochemical; conditions: purified GST-hYak3-His6, 4 μM Ser164 peptide, 0.001 mM ATP, 2 hours room temperature; read-out: pIC50 values (converted)
T2 construct: GST (N); His6 (C); made in house; host or cells: baculovirus expression system in Sf9 cells
T2 sequence (O43781 124-526): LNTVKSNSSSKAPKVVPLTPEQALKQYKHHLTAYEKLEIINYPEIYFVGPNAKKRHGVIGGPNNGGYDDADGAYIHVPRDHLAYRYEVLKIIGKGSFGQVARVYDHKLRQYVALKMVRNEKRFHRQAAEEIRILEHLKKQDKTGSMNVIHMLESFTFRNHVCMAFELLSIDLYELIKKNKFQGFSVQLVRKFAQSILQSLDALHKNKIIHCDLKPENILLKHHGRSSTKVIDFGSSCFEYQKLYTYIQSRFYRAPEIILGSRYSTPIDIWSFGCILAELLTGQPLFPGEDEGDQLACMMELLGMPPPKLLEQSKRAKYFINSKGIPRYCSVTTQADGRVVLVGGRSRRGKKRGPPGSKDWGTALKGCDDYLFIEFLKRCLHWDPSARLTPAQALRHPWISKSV
Experimental: YAK3 Scintillation Proximity Assays Using Ser164 of Myelin Basic Protein as the Phosphoacceptor
The source of Ser164 substrate peptide The biotinylated Ser164, S164A peptide(Biotinyl—LGGRDSRAGS*PMARR—OH), sequence derived from the C-terminus of bovine myelin basic protein (MBP) with Ser162 substituted as Ala162, was purchased from California Peptide Research Inc. (Napa, Calif.), and its purity was determined by HPLC. Phosphorylation occurs at position 164 (marked S* above). The calculated molecular mass of the peptide was 2166 dalton. Solid sample was dissolved at 10 mM in DMSO, aliquoted, and stored at −20° C. until use.
The source of hYAK3 enzyme: Glutathione-S-Transferase (GST)-hYak3-His6 containing amino acid residues 124-526 of human YAK3 (aa 124-526 of SEQ ID NO 2. in U.S. Pat. No. 6,323,318) was purified from baculovirus expression system in Sf9 cells using Glutathione Sepharose 4B column chromatography followed by Ni-NTA-Agarose column chromatography. Purity greater than 65% typically was achieved. Samples, in 50 mM Tris, 150 mM NaCl, 10% glycerol, 0.1% Triton, 250 mM imidazole, 10 mM β-mercapto ethanol, pH 8.0. were stored at −80° C. until use.
Kinase assay of purified hYAK3: Assays were performed in 96 well (Costar, Catalog No. 3789) or 384 well plates (Costar, Catalog No. 3705). […] Compounds, titrated in DMSO, were evaluated at concentrations ranging from 50 μM to 0.5 nM. […]

T1 sequence (P68400 whole entry): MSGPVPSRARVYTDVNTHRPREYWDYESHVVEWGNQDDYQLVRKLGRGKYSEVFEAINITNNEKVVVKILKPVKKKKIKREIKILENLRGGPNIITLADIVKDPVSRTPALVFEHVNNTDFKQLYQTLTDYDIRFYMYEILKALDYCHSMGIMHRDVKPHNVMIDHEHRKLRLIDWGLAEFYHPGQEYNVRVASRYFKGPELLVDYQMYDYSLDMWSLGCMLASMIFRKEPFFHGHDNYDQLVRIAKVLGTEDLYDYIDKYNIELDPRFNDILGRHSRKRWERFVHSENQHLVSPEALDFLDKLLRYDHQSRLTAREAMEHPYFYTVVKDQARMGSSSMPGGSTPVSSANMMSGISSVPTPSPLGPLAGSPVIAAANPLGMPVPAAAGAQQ
T1 sequence (P67870 whole entry partner): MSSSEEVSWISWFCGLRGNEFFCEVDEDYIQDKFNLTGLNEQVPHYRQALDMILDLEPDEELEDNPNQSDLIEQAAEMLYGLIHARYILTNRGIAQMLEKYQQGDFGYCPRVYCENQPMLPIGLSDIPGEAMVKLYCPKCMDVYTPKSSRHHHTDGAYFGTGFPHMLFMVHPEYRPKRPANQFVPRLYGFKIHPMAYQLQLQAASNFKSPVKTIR

| SMILES | IC50 [1] [nM] | IC50 (hYAK3) [nM] |
| --- | --- | --- |
| COc1ccc(-c2nc(Nc3cc(C(N)=O)ccc3Cl)c(C(=O)O)s2)cc1 [Ief, 4-(5-Carbamoyl-2-chlorophenylamino)-2-(4-methoxyphenyl)thiazole-5-carboxylic acid] | 10.2 to 100 |  |
| COc1cccc(-c2nc(Nc3ccccc3F)c(C(=O)O)s2)c1 [Ibf, 5-Carboxyl-4-(2-fluoroanilino)-2-(3-methoxyphenyl)thiazole] |  | 1020 to 10000 |
| COc1ccc(-c2nc(Nc3cc(S(=O)(=O)O)ccc3Cl)c(C(=O)O)s2)cc1 [Ieg, 4-(2-Chloro-5-sulfophenylamino)-2-(4-methoxyphenyl) thiazole-5-carboxylic acid] | 102 to 1000 |  |
| NC(=O)c1sc(-c2ccc3c(c2)CCO3)nc1Nc1ccccc1Cl [Ieb, 4-(2-Chlorophenylamino)-2-(2,3-dihydrobenzofuran-5-yl) thiazole-5-carboxylic acid amide] | 1020 to 10000 |  |
| COc1ccc(-c2nc(Nc3ccccc3C(F)(F)F)c(C(=O)O)s2)cc1 [Ibd, 5-Carboxyl-2-(4-methoxyphenyl)-4-(2-trifluoromethylanilino)thiazole] |  | 102 to 1000 |

From patent publication US20090270456A1, “Novel chemical compounds” (priority 2004, published 2009)
